# How the values were obtained:
# [1] = biological target: human recombinant Aurora A (Homo sapiens (Human), UniProt O14965); assay: Aurora A Kinase Biochemical Assay (ADP-Glo); settings: ratio of Aurora A IC50 to PLK4 IC50 (selectivity)
# human recombinant PLK4 = human recombinant PLK4 (Homo sapiens (Human), UniProt O00444); assay: PLK4 Biochemical Assay (ADP-Glo); settings: 0.5 nM PLK4, 8.0 µM ATP, 4.7 µM MBP, 6 hours at RT
# Outline: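 Luminescent ADP-Glo detection quantified ADP production, with ATP depletion for 40 min and detection for 30 min at room temperature. Compound and PLK4 (1.0 nM stock addition) were preincubated 15 min in HEPES pH 7.5 buffer containing MgCl2, EGTA, DTT, Brij-35 and BSA. IC50 values were obtained by four-parameter nonlinear regression.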
# [2] = biological target: human recombinant Aurora B (Homo sapiens (Human), UniProt Q96GD4); assay: Aurora B Kinase Biochemical Assay (ADP-Glo); settings: ratio of Aurora B IC50 to PLK4 IC50 (selectivity)
# Outline: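 IC50 derived by four-parameter nonlinear fit of ADP-Glo luminescence (ADP produced). Compound was preincubated 15 min at RT with 20 nM recombinant human Aurora B, in 50 mM HEPES pH 7.5, 10 mM MgCl2, 1 mM EGTA, 1 mM DTT, 0.01% Brij-35/BSA.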
# CHP-134 cells = assay: CHP134 CellTiter-Glo (CTG) Assay; assay type: cell-based; settings: Homo sapiens, CHP-134, 120 h, 5 days, viable cells by CellTiter-Glo
# Outline: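 Nine-point 1:3 dilution series, diluted into growth media, added in quadruplicate to CHP-134 cells plated 16 h earlier at 200 cells/well.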
# human recombinant Aurora A, sequence (O14965 whole entry): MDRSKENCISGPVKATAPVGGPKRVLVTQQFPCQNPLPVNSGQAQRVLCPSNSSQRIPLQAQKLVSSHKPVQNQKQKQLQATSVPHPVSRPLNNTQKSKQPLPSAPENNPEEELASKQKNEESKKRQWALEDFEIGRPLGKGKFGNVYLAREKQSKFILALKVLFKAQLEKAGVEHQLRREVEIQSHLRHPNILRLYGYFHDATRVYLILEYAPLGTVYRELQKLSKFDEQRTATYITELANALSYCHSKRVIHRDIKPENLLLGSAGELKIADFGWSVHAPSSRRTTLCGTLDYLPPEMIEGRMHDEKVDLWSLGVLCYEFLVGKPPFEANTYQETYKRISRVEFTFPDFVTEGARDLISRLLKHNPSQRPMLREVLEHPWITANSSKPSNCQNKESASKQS
# human recombinant Aurora B, sequence (Q96GD4 whole entry): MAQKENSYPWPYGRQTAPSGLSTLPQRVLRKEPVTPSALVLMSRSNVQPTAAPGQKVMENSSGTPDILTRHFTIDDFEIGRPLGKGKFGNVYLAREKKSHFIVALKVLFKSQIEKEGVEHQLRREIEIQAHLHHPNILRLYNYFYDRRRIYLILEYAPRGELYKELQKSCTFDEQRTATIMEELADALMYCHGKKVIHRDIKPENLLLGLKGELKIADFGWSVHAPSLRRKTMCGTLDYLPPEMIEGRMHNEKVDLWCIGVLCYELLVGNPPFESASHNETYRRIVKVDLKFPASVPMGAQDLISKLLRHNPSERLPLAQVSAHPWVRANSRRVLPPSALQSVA
# human recombinant PLK4, sequence (O00444 whole entry): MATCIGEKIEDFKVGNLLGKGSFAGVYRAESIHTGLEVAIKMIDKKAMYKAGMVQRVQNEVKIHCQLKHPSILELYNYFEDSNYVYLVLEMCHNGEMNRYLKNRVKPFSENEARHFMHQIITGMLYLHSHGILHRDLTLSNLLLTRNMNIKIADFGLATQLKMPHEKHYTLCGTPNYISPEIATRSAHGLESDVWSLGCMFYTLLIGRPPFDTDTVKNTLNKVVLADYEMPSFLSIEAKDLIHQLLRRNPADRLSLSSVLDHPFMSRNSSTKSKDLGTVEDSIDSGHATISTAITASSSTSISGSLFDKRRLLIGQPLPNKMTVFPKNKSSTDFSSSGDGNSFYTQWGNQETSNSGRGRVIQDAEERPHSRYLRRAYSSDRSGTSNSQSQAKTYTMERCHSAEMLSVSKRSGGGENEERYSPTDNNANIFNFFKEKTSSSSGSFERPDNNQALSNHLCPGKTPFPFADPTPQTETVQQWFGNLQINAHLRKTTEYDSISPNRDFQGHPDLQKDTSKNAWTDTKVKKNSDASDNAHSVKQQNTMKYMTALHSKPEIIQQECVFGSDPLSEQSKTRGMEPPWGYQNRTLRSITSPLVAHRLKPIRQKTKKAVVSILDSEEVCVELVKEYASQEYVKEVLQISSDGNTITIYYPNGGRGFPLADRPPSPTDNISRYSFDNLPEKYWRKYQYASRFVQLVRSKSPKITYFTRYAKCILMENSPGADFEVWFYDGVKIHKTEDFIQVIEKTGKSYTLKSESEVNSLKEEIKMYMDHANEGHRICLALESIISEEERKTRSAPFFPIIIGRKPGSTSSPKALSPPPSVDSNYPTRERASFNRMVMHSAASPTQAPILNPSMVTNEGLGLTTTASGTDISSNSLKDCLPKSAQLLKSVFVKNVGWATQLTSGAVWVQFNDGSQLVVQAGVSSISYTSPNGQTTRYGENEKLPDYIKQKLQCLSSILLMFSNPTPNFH
[Aurora A IC50 (nM)]/[PLK4 IC50 (nM)] [1],IC50 (human recombinant PLK4) [nM],[Aurora B IC50 (nM)]/[PLK4 IC50 (nM)] [2],SMILES,IC50 (CHP-134 cells) [nM]
305.4106,1.03,68.0773,"COc1ccc2c(c1)[C@]1(C[C@H]1c1ccc3c(Nc4nc(SC)ncc4OC)n[nH]c3c1)C(=O)N2 [Example 155, (1R,2S)-5′-methoxy-2-(3-{[5-methoxy-2-(methylsulfanyl)pyrimidin-4-yl]amino}-1H-indazol-6-yl)spiro[cyclopropane-1,3′-indol]-2′(1′H)-one]",192
510.6317,1.95,303.9548,"COc1ccc2c(c1)[C@]1(C[C@H]1c1ccc3c(Nc4nc(N5CCC5)ncc4OC)n[nH]c3c1)C(=O)N2 [Example 157, (1R,2S)-2-(3-{[2-(azetidin-1-yl)-5-methoxypyrimidin-4-yl]amino}-1H-indazol-6-yl)-5′-methoxyspiro[cyclopropane-1,3′-indol]-2′(1′H)-one]",288
309.7350,1.96,58.0530,"COc1ccc2c(c1)[C@]1(C[C@H]1c1ccc3c(Nc4nc(C)nc5c4CCC5)n[nH]c3c1)C(=O)N2 [Example 159, (1R,2S)-5′-methoxy-2-{3-[(2-methyl-6,7-dihydro-5H-cyclopenta[d]pyrimidin-4-yl)amino]-1H-indazol-6-yl}spiro[cyclopropane-1,3′-indol]-2′(1′H)-one]",1300
545.5487,1.93,149.5859,"CCc1ncc(OC)c(Nc2n[nH]c3cc([C@@H]4C[C@@]45C(=O)Nc4ccc(OC)cc45)ccc23)n1 [Example 160, (1R,2S)-2-{3-[(2-ethyl-5-methoxypyrimidin-4-yl)amino]-1H-indazol-6-yl}-5′-methoxyspiro[cyclopropane-1,3′-indol]-2′(1′H)-one]",310
291.4932,2.21,258.4163,"COc1ccc2c(c1)[C@]1(C[C@H]1c1ccc3c(Nc4cc5cccnc5cc4OC)n[nH]c3c1)C(=O)N2 [Example 161, (1R,2S)-5′-methoxy-2-{3-[(7-methoxyquinolin-6-yl)amino]-1H-indazol-6-yl}spiro[cyclopropane-1,3′-indol]-2′(1′1H)-one]",352
2164.0420,1.52,389.4357,"COc1ccc2c(c1)[C@]1(C[C@H]1c1ccc3c(Nc4nc5ccccc5cc4OC)n[nH]c3c1)C(=O)N2 [Example 163, (1R,2S)-5′-methoxy-2-{3-[(3-methoxyquinolin-2-yl)amino]-1H-indazol-6-yl}spiro[cyclopropane-1,3′-indol]-2′(1′H)-one]",226
397.0049,6.28,161.2235,"COc1cnc(OC)c(Nc2n[nH]c3cc([C@@H]4C[C@@]45C(=O)Nc4ccc(OC)cc45)ccc23)c1 [Example 164, (1R,2S)-2-{3-[(2,5-dimethoxypyridin-3-yl)amino]-1H-indazol-6-yl}-5′-methoxyspiro[cyclopropane-1,3′-indol]-2′(1′H)-one]",1640
111.2559,4.68,76.9329,"COc1ccc2c(c1)[C@]1(C[C@H]1c1ccc3c(Nc4nc(Cl)nc5ccoc45)n[nH]c3c1)C(=O)N2 [Example 165, (1R,2S)-2-{3-[(2-chlorofuro[3,2-d]pyrimidin-4-yl)amino]-1H-indazol-6-yl}-5′-methoxyspiro[cyclopropane-1,3′-indol]-2′(1′H)-one]",1060
1151.3716,0.802,68.4539,"COc1ccc2c(c1)[C@]1(C[C@H]1c1ccc3c(Nc4ccc(C(=O)N(C)C)nc4OC)n[nH]c3c1)C(=O)N2 [Example 166, 6-methoxy-5-({6-[(1R,2S)-5′-methoxy-2′-oxo-1′,2′-dihydrospiro[cyclopropane-1,3′-indol]-2-yl]-1H-indazol-3-yl}amino)-N,N-dimethylpyridine-2-carboxamide]",80.6
295.5932,1.18,916.9492,"COc1ccc2c(c1)[C@]1(C[C@H]1c1ccc3c(Nc4nc(N5CCCC5)ncc4OC)n[nH]c3c1)C(=O)N2 [Example 167, (1R,2S)-5′-methoxy-2-(3-{[5-methoxy-2-(pyrrolidin-1-yl)pyrimidin-4-yl)amino}-1H-indazol-6-yl)spiro[cyclopropano-1,3′-indol]-2′(1′H)-one]",212
666.9347,0.995,431.4573,COc1ccc2c(c1)[C@]1(C[C@H]1c1ccc3c(Nc4nc(N5CC[C@@H](F)C5)ncc4OC)n[nH]c3c1)C(=O)N2 [Example 169],188
694.1090,1.36,587.9234,"COc1ccc2c(c1)[C@]1(C[C@H]1c1ccc3c(Nc4nc(N5CCC(F)(F)C5)ncc4OC)n[nH]c3c1)C(=O)N2 [Example 170, (1R,2S)-2-(3-{[2-(3,3-difluoropyrrolidin-1-yl)-5-methoxypyrimidin-4-yl]amino}-1H-indazol-6-yl)-5′-methoxyspiro[cyclopropane-1,3′-indol]-2′(1′H)-one]",326
1176.6309,5.87,259.2403,"COc1ccc2c(c1)[C@]1(C[C@H]1c1ccc3c(Nc4nc(Cl)nc5ccn(C)c45)n[nH]c3c1)C(=O)N2 [Example 171, (1R,2S)-2-{3-[(2-chloro-5-methyl-5H-pyrrolo[3,2-d]pyrimidin-4-yl)amino]-1H-indazol-6-yl}-5′-methoxyspiro[cyclopropane-1,3′-indol]-2′(1′H)-one]",1520
324.94,4.09,202.96,"COc1ccc2c(c1)[C@]1(C[C@H]1c1ccc3c(Nc4nc(C#N)ncc4OC)n[nH]c3c1)C(=O)N2 [Example 172, 5-methoxy-4-({6-[(1R,2S)-5′-methoxy-2′-oxo-1′,2′-dihydrospiro[cyclopropane-1,3′-indol]-2-yl]-1H-indazol-3-yl}amino)pyrimidine-2-carbonitrile]",1260
301.0878,2.67,314.9287,"COc1ccc2c(c1)[C@]1(C[C@H]1c1ccc3c(Nc4nc(N5CC(F)(F)C5)ncc4OC)n[nH]c3c1)C(=O)N2 [Example 173, (1R,2S)-2-(3-([2-(3,3-difluoroazetidin-1-yl)-5-methoxypyrimidin-4-yl]amino}-1H-indazol-6-yl)-5′-methoxyspiro[cyclopropane-1,3′-indol]-2′(1 ‘H)-one]",332
365.8511,1.92,353.7741,"COc1ccc2c(c1)[C@]1(C[C@H]1c1ccc3c(Nc4nc(N5CC(F)C5)ncc4OC)n[nH]c3c1)C(=O)N2 [Example 174, (1R,2S)-2-(3-{[2-(3-fluoroazetidin-1-yl)-5-methoxypyrimidin-4-yl]amino}-1H-indazol-6-yl)-5′-methoxyspiro[cyclopropane-1,3′-indol]-2′(1′H)-one]",392
14009.5265,3.57,8627.0664,"CCS(=O)(=O)c1ccc(OC)c(Nc2n[nH]c3cc([C@@H]4C[C@@]45C(=O)Nc4ccc(OC)cc45)ccc23)c1 [Example 175, (1R,2S)-2-{3-[5-(ethanesulfonyl)-2-methoxyanilino]-1H-indazol-6-yl}-5′-methoxyspiro[cyclopropane-1,3′-indol]-2′(1′H)-one]",2210
1725.2902,2.84,1300.3869,"COc1ccc2c(c1)[C@]1(C[C@H]1c1ccc3c(Nc4cc(C(=O)N(C)C)ccc4OC)n[nH]c3c1)C(=O)N2 [Example 176, 4-methoxy-3-({6-[(1R,2S)-5′-methoxy-2′-oxo-1′,2′-dihydrospiro[cyclopropane-1,3′-indol]-2-yl]-1H-indazol-3-yl}amino)-N,N-dimethylbenzamide]",1550
11750.8813,4.25,11750.8813,"CNC(=O)c1ccc(OC)c(Nc2n[nH]c3cc([C@@H]4C[C@@]45C(=O)Nc4ccc(OC)cc45)ccc23)c1 [Example 177, 4-methoxy-3-({6-[(1R,2S)-5′-methoxy-2′-oxo-1′,2′-dihydrospiro[cyclopropane-1,3′-indol]-2-yl]-1H-indazol-3-yl}amino)-N-methylbenzamide]",3680

# — patent publication US20230365537A1, “POLO LIKE KINASE 4 INHIBITORS” (ORIC Pharmaceuticals, Inc., priority 2021, published 2023)
